Assay results from the Kinase Knowledgebase extract (Sharma et al. 2016).

The compounds below were run against PIK3CG (human) (UniProt P48736) (assay: Assessment of PIK3CG Kinase Activity).
PIK3CG (human), sequence (P48736 whole entry, looked up): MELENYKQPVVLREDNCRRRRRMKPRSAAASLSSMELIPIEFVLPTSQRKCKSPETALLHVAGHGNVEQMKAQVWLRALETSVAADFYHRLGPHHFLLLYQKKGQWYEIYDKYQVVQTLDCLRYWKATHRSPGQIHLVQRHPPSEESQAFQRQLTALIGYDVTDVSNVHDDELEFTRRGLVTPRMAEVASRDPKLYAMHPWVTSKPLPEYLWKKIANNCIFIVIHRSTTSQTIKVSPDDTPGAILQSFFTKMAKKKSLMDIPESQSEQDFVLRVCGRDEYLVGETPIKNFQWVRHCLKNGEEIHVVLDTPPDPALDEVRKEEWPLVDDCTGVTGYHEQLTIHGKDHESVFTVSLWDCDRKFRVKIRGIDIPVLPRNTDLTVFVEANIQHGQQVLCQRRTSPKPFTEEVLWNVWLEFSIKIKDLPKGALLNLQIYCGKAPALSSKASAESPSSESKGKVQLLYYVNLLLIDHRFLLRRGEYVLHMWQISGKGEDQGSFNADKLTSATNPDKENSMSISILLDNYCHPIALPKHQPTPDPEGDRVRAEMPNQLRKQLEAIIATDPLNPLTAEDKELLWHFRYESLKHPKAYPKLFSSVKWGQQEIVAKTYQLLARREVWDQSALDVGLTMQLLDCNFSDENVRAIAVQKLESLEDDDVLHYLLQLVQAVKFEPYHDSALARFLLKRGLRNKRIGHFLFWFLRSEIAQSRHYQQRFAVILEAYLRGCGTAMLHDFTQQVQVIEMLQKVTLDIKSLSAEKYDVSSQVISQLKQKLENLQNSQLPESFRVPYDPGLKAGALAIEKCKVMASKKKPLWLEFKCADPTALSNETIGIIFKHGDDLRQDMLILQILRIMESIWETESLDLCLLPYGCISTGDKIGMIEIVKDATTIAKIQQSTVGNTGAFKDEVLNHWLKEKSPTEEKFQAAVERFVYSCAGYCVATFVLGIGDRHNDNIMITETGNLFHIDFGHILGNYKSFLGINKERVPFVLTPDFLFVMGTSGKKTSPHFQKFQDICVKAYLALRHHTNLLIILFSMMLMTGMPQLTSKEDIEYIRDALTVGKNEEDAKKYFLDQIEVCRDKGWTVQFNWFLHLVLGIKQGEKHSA

Row | Compound | IC50 [nM]
1 | NC(=O)c1ccc(CNC(=O)Nc2nc3c(s2)-c2c(c(-c4cncnc4)nn2-c2ccccc2Cl)CC3)cc1 | < 800
2 | O=C(Nc1nc2c(s1)-c1c(c(-c3cccnc3)nn1-c1ccccc1Cl)CC2)NC1CC1 | < 800
3 | O=C(NCCN1CCNC1=O)Nc1nc2c(s1)-c1c(c(-c3cccnc3)nn1-c1ccccc1Cl)CC2 | < 800
4 | Cc1ccc(CN2CC(CNC(=O)Nc3nc4c(s3)-c3c(c(-c5cccnc5)nn3-c3ccccc3Cl)CC4)CC2=O)cc1 (stereo not drawn) | < 800
5 | CC(C)(C)OC(=O)CCNC(=O)Nc1nc2c(s1)-c1c(c(-c3cncnc3)nn1-c1ccccc1Cl)CC2 | < 800
6 | CC(C)c1noc(CCNC(=O)Nc2nc3c(s2)-c2c(c(C4CC4)nn2-c2ccccc2Cl)CC3)n1 | < 800
7 | CNC(=O)Nc1nc2c(s1)-c1c(c(-c3cccnc3)nn1-c1ccc(S(N)(=O)=O)cc1Cl)CC2 | < 800
8 | O=C(NCCC(=O)N1CCCC1)Nc1nc2c(s1)-c1c(c(-c3cncnc3)nn1-c1ccccc1Cl)CC2 | < 800
9 | O=C(NCc1cccc(C(=O)NC2CCCCC2)c1)Nc1nc2c(s1)-c1c(c(-c3cccnc3)nn1-c1ccccc1Cl)CC2 | < 800
10 | NC(=O)Nc1nc2c(s1)-c1c(c(-c3cncnc3)nn1-c1ccccc1F)CC2 | < 800
11 | COc1cccc(CNC(=O)Nc2nc3c(s2)-c2c(c(-c4cncnc4)nn2-c2ccccc2Cl)CC3)c1 | < 800
12 | O=C(NC[C@H]1CCCN1C(=O)N1CCCCC1)Nc1nc2c(s1)-c1c(c(-c3cncnc3)nn1-c1ccccc1Cl)CC2 | < 800
13 | CC(C)(C)OC(=O)NCC1CCCN1C(=O)Nc1nc2c(s1)-c1c(c(-c3cccnc3)nn1-c1ccccc1Cl)CC2 (stereo not drawn) | < 800
14 | O=C(NC[C@H]1CCN(C(=O)N2CCCCC2)C1)Nc1nc2c(s1)-c1c(c(-c3cncnc3)nn1-c1ccccc1Cl)CC2 | < 800
15 | CC(C)(C)OC(=O)N1CCCCC1CNC(=O)Nc1nc2c(s1)-c1c(c(-c3cccnc3)nn1-c1ccccc1Cl)CC2 (stereo not drawn) | < 800
16 | CC(C)(C)OC(=O)N[C@H]1CC[C@H](CNC(=O)Nc2nc3c(s2)-c2c(c(-c4cccnc4)nn2-c2ccccc2Cl)CC3)CC1 | < 800
17 | O=C(Nc1cccc(N2CCNCC2)c1)Nc1nc2c(s1)-c1c(c(-c3cncnc3)nn1-c1ccccc1F)CC2 | < 800
18 | O=C(NCc1cccc(N2CCNC2=O)c1)Nc1nc2c(s1)-c1c(c(-c3cccnc3)nn1-c1ccccc1Cl)CC2 | < 800
19 | O=C(NCCc1cccnc1)Nc1nc2c(s1)-c1c(c(-c3cccnc3)nn1-c1ccccc1Cl)CC2 | < 800
20 | CNC(=O)Nc1nc2c(s1)-c1c(c(-c3cncnc3)nn1-c1ccccc1Cl)CC2 | < 800

Row | Compound | IC50 [nM]
21 | CN(C)C(=O)CCNC(=O)Nc1nc2c(s1)-c1c(c(-c3cccnc3)nn1C1CCN(C3CCCC3)CC1)CC2 | < 800
22 | CC(C)(C)OC(=O)N1CCCC(CNC(=O)Nc2nc3c(s2)-c2c(c(-c4cccnc4)nn2-c2ccccc2Cl)CC3)C1 (stereo not drawn) | < 800
23 | Cc1nc[nH]c1-c1cccc(CNC(=O)Nc2nc3c(s2)-c2c(c(-c4cncnc4)nn2-c2ccccc2Cl)CC3)c1 | < 800
24 | CCN(CC)CCNC(=O)Nc1nc2c(s1)-c1c(c(-c3cncnc3)nn1-c1ccccc1Cl)CC2 | < 800
25 | CN1CCN(CCNC(=O)Nc2nc3c(s2)-c2c(c(-c4cncnc4)nn2-c2ccccc2F)CC3)CC1 | < 800
26 | O=C(Nc1nc2c(s1)-c1c(c(-c3ccccc3)nn1-c1ccccc1Cl)CC2)NC1CCS(=O)(=O)C1 (stereo not drawn) | < 800
27 | CS(=O)(=O)Nc1ccc(NC(=O)Nc2nc3c(s2)-c2c(c(-c4ccccc4)nn2-c2ccccc2Cl)CC3)cc1 | < 800
28 | CCN1CCC[C@H]1CNC(=O)Nc1nc2c(s1)-c1c(c(-c3cccnc3)nn1-c1ccccc1Cl)CC2 | < 800
29 | N[C@@H]1CC[C@@H](NC(=O)Nc2nc3c(s2)-c2c(c(-c4ccccc4)nn2-c2ccccc2Cl)CC3)C1 | < 800
30 | CC(C)(C)OC(=O)N1CCN(c2cccc(NC(=O)Nc3nc4c(s3)-c3c(c(-c5cncnc5)nn3-c3ccccc3F)CC4)c2)CC1 | < 800
31 | O=C(Nc1nc2c(s1)-c1c(c(-c3ccccc3)nn1-c1ccccc1Cl)CC2)NC1CCC(NS(=O)(=O)c2ccccc2)CC1 (stereo not drawn) | < 800
32 | O=C(NCCN1CCOCC1)Nc1nc2c(s1)-c1c(c(-c3cncnc3)nn1-c1ccccc1F)CC2 | < 800
33 | CN1CCN(C(=O)Nc2nc3c(s2)-c2c(cnn2-c2ccccc2)CC3)CC1 | < 800
34 | O=C(NCC1CCCCN1)Nc1nc2c(s1)-c1c(c(-c3cncnc3)nn1-c1ccccc1Cl)CC2 (stereo not drawn) | < 800
35 | CNC(=O)Nc1nc2c(s1)-c1c(c(-c3ccccc3)nn1-c1ccccc1Cl)CC2 | < 800
36 | CN(C)C(=O)N1CCC[C@@H]1CNC(=O)Nc1nc2c(s1)-c1c(c(-c3cncnc3)nn1-c1ccccc1Cl)CC2 | < 800
37 | O=C(NCCc1nc(C2CC2)no1)Nc1nc2c(s1)-c1c(c(-c3cncnc3)nn1-c1ccccc1Cl)CC2 | < 800
38 | CC(C)(C)OC(=O)N1CCC(CNC(=O)Nc2nc3c(s2)-c2c(c(-c4cccnc4)nn2-c2ccccc2Cl)CC3)CC1 | < 800
39 | CCc1cccc(CNC(=O)Nc2nc3c(s2)-c2c(c(C4CC4)nn2-c2ccccc2Cl)CC3)c1 | < 800
40 | CCOC(=O)N1CC[C@H](CNC(=O)Nc2nc3c(s2)-c2c(c(-c4cncnc4)nn2-c2ccccc2Cl)CC3)C1 | < 800

Row | Compound | IC50 [nM]
41 | O=C(NCCCC(=O)N1CCOCC1)Nc1nc2c(s1)-c1c(c(-c3ccccc3)nn1-c1ccccc1Cl)CC2 | < 800
42 | O=C(NCCn1cc[nH]c1=O)Nc1nc2c(s1)-c1c(c(-c3ccccc3)nn1-c1ccccc1Cl)CC2 | < 800
43 | CN1CCC(n2nc(-c3cccnc3)c3c2-c2sc(NC(=O)NCCc4nc(C5CC5)no4)nc2CC3)CC1 | < 800
44 | CC(=O)Nc1cccc(CNC(=O)Nc2nc3c(s2)-c2c(c(C4CC4)nn2-c2ccccc2Cl)CC3)c1 | < 800
45 | CN(C)CCNC(=O)Nc1nc2c(s1)-c1c(c(-c3cncnc3)nn1-c1ccccc1F)CC2 | < 800
46 | O=C(NCc1cccc(-c2ccccc2)c1)Nc1nc2c(s1)-c1c(c(-c3cncnc3)nn1-c1ccccc1Cl)CC2 | < 800
47 | NC(=O)N1Cc2ccc(CNC(=O)Nc3nc4c(s3)-c3c(c(-c5cccnc5)nn3-c3ccccc3Cl)CC4)cc2C1 | < 800
48 | O=C(NCCc1ccc2c(c1)OCCO2)Nc1nc2c(s1)-c1c(c(-c3cncnc3)nn1-c1ccccc1Cl)CC2 | < 800
49 | O=C(Nc1nc2c(s1)-c1c(c(-c3cccnc3)nn1-c1ccccc1Cl)CC2)N1CCCC(c2ccccc2O)C1 (stereo not drawn) | < 800
50 | NC(=O)Nc1nc2c(s1)-c1c(c(-c3cccnc3)nn1-c1ccccc1Cl)CC2 | < 800
51 | CN(C)C(=O)CNC(=O)Nc1nc2c(s1)-c1c(c(-c3ccccc3)nn1-c1ccccc1Cl)CC2 | < 800
52 | CCOC(=O)CCCNC(=O)Nc1nc2c(s1)-c1c(c(-c3ccccc3)nn1-c1ccccc1Cl)CC2 | < 800
53 | O=C(NCCc1cccc(C(F)(F)F)c1)Nc1nc2c(s1)-c1c(c(-c3cncnc3)nn1-c1ccccc1Cl)CC2 | < 800
54 | COC(=O)CCNC(=O)Nc1nc2c(s1)-c1c(c(-c3cncnc3)nn1-c1ccccc1Cl)CC2 | < 800
55 | CCn1cnc(CCNC(=O)Nc2nc3c(s2)-c2c(c(-c4cncnc4)nn2-c2ccccc2Cl)CC3)c1 | < 800
56 | O=C(NCCCn1ccnc1)Nc1nc2c(s1)-c1c(c(-c3cncnc3)nn1-c1ccccc1F)CC2 | < 800
57 | CC(C)(C)OC(=O)N1CCC[C@@H]1CNC(=O)Nc1nc2c(s1)-c1c(c(-c3ccccc3)nn1-c1ccccc1F)CC2 | < 800
58 | CC(C)(C)COC(=O)N1CCC[C@@H]1CNC(=O)Nc1nc2c(s1)-c1c(c(-c3cncnc3)nn1-c1ccccc1Cl)CC2 | < 800
